Measured values reported in PMC5468247, “Development of a selective agonist for relaxin family peptide receptor 3” (Scientific Reports, 2017).

Columns and labels:
[1] = target: T1, human RXFP4 (Homo sapiens, UniProt Q8TDU9); assay: Receptor binding assay, NanoLuc-conjugated R3/I5 tracer competition; settings: compared with R3/I5
T1 construct: expressed in transfected cells; host or cells: HEK293T
Description: (§1) Specific binding data are expressed as means ± SE (n = 3) and fitted to sigmoidal curves using SigmaPlot 10.0 software.
(§2) Briefly, HEK293T cells were transiently transfected with an expression construct of human RXFP3 or human RXFP4. On the next day, transfected cells were trypsinised, seeded into 96-well plates, and continuously cultured for 24–36 h to ~100% confluence. […] After incubation at 21 °C for 2 h, binding solution was removed and cells were washed twice with ice-cold phosphate-buffered saline (200 μl/well for each wash). Thereafter, cells were lysed by lysis solution (100 μl/well, Promega, Madison, WI, USA) and cell lysates were transferred to a white opaque 96-well plate (50 μl/well). After mixing with freshly diluted substrate (50 μl/well), bioluminescence was immediately measured on a SpectraMax M5 plate reader (Molecular Devices, Sunnyvale, CA, USA) in luminescence mode. […] The calculated specific binding data were expressed as means ± standard error (SE; n = 3) and fitted to sigmoidal curves using SigmaPlot 10.0 software.

[2] = target: T2, human RXFP3 (Homo sapiens, UniProt Q9NSD7); assay: as above; settings: for binding potency towards RXFP3, in words: compared with R3/I5
T2 construct: expressed in transfected cells; host or cells: HEK293T
T2 sequence (Q9NSD7 1-469): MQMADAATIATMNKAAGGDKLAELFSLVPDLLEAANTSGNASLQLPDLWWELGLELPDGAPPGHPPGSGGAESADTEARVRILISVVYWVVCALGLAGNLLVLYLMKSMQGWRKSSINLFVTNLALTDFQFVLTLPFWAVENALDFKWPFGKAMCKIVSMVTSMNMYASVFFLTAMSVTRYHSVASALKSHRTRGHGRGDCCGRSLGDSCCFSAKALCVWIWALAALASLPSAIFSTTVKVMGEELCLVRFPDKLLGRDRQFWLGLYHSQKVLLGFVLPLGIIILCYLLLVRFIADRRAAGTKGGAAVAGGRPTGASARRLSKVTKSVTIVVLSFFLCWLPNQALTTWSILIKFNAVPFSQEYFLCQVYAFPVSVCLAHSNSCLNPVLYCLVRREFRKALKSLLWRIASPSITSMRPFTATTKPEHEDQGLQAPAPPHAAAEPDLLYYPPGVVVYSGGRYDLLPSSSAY
Description: as §1, §2

[3] = target: T1, human RXFP4; assay: Receptor activation assay, CRE-controlled NanoLuc reporter; format: cell-based; settings: relative to R3/I5
Excerpt: (§3) HEK293T cells transiently cotransfected with a CRE-controlled NanoLuc reporter vector and the expression construct of human RXFP3 or human RXFP4 were used for activation assays. The measured bioluminescence data are expressed as means ± SE (n = 3) and fitted to sigmoidal or linear curves using SigmaPlot 10.0.
(§4) Briefly, HEK293T cells were transiently cotransfected with the NanoLuc reporter vector pNL1.2/CRE and the expression construct of human RXFP3 or human RXFP4. On the next day, transfected cells were trypsinised, seeded into 96-well plates, and continuously cultured for 24–36 h to ~90% confluence. To initiate activation assays, medium was removed and activation solution (serum-free DMEM medium plus 1% bovine serum albumin) containing 1.0 μM of forskolin and various concentrations of peptide was added (100 μl/well). After continuous culturing at 37 °C for 4 h, activation solution was removed and cells were lysed with lysis solution (100 μl/well, Promega). Cell lysates were then transferred to a white opaque 96-well plate (50 μl/well), mixed with freshly diluted substrate (50 μl/well), and bioluminescence was immediately measured on a SpectraMax M5 plate reader (Molecular Devices) in luminescence mode. The measured data were expressed as means ± SE (n = 3) and fitted to sigmoidal or linear curves using SigmaPlot 10.0 software.

[4] = target: T2, human RXFP3; assay: as above; format: cell-based; settings: for fold lower activation potency towards RXFP3 compared with R3/I5: relative to R3/I5; for fold higher activation potency towards RXFP3 than towards RXFP4: selectivity RXFP3 over RXFP4, from activation assays
Excerpt: as §3, §4

[5] = CRE-NanoLuc reporter, human RXFP3

T1 sequence (Q8TDU9 whole entry): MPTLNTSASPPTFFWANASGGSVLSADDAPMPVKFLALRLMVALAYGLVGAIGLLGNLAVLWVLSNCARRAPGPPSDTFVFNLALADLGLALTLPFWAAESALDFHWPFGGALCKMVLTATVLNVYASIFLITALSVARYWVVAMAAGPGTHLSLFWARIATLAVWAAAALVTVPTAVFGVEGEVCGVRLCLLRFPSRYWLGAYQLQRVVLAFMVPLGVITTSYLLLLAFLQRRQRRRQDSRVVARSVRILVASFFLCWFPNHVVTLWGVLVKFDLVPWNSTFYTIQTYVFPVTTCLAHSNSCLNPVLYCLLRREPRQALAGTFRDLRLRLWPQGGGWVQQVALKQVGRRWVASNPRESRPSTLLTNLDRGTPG

## CC[C@H](C)[C@@H]1NC(=O)[C@H](Cc2ccccc2)NC(=O)[C@H](CCC(=O)O)NC(=O)[C@H](CCCNC(=N)N)NC(=O)CNC(=O)[C@@H](NC(=O)[C@H](CC(C)C)NC(=O)[C@H](CCCNC(=N)N)NC(=O)[C@@H](NC(=O)CNC(=O)[C@H](Cc2ccc(O)cc2)NC(=O)[C@@H]2CCCN2C(=O)[C@H](C)NC(=O)[C@H](C)NC(=O)[C@H](CCCNC(=N)N)NC(=O)[C@@H]2CCC(=O)N2)C(C)C)CSSC[C@@H]2NC(=O)[C@@H](NC(=O)[C@H](CC(C)C)NC(=O)[C@@H](NC(=O)[C@H](CCC(N)=O)NC(=O)[C@H](CC(C)C)NC(=O)[C@H](CC(=O)O)NC(=O)[C@H](CCC(N)=O)NC(=O)[C@H](CCCNC(=N)N)NC(=O)[C@H](CO)NC(=O)[C@H](CCCNC(=N)N)NC(=O)[C@H](CCCNC(=N)N)NC(=O)[C@H](CO)NC(=O)[C@@H](N)CCCNC(=N)N)[C@@H](C)O)CSSC[C@H](NC(=O)CNC(=O)[C@H](CC(=O)O)NC(=O)[C@H]([C@@H](C)O)NC2=O)C(=O)N[C@@H](CO)C(=O)N[C@@H](CCSC)C(=O)N[C@@H]([C@@H](C)O)C(=O)N[C@@H](CC(=O)O)C(=O)N[C@@H](CC(C)C)C(=O)N[C@@H](CO)C(=O)N[C@@H](C)C(=O)N[C@@H](CC(C)C)C(=O)N[C@H](C(=O)O)CSSC[C@@H](C(=O)NCC(=O)NCC(=O)NCC(=O)N[C@@H](CO)C(=O)N[C@@H](CCCNC(=N)N)C(=O)N[C@@H](Cc2c[nH]c3ccccc23)C(=O)O)NC(=O)[C@H]([C@@H](C)O)NC(=O)[C@H](Cc2ccccc2)NC(=O)[C@H]([C@@H](C)CC)NC(=O)[C@H](C(C)C)NC(=O)[C@H](C)NC(=O)[C@H](CCCNC(=N)N)NC1=O [[+G(B23-24)]R3/I5]
[1]
  binding potency towards RXFP4, in words: comparable with R3/I5
[2]
  binding potency towards RXFP3, in words: comparable with R3/I5
[3]
  fold lower activation potency towards RXFP4 compared with R3/I5: ~ 100 fold
[4]; [5]
  fold lower activation potency towards RXFP3 compared with R3/I5: ~ 100 fold

## CC[C@H](C)[C@@H]1NC(=O)[C@H](Cc2ccccc2)NC(=O)[C@H](CCC(=O)O)NC(=O)[C@H](CCCNC(=N)N)NC(=O)CNC(=O)[C@@H](NC(=O)[C@H](CC(C)C)NC(=O)[C@H](CCCNC(=N)N)NC(=O)[C@@H](NC(=O)CNC(=O)[C@H](Cc2ccc(O)cc2)NC(=O)[C@@H]2CCCN2C(=O)[C@H](C)NC(=O)[C@H](C)NC(=O)[C@H](CCCNC(=N)N)NC(=O)[C@@H]2CCC(=O)N2)C(C)C)CSSC[C@@H]2NC(=O)[C@@H](NC(=O)[C@H](CC(C)C)NC(=O)[C@@H](NC(=O)[C@H](CCC(N)=O)NC(=O)[C@H](CC(C)C)NC(=O)[C@H](CC(=O)O)NC(=O)[C@H](CCC(N)=O)NC(=O)[C@H](CCCNC(=N)N)NC(=O)[C@H](CO)NC(=O)[C@H](CCCNC(=N)N)NC(=O)[C@H](CCCNC(=N)N)NC(=O)[C@H](CO)NC(=O)[C@@H](N)CCCNC(=N)N)[C@@H](C)O)CSSC[C@H](NC(=O)CNC(=O)[C@H](CC(=O)O)NC(=O)[C@H]([C@@H](C)O)NC2=O)C(=O)N[C@@H](CO)C(=O)N[C@@H](CCSC)C(=O)N[C@@H]([C@@H](C)O)C(=O)N[C@@H](CC(=O)O)C(=O)N[C@@H](CC(C)C)C(=O)N[C@@H](CO)C(=O)N[C@@H](C)C(=O)N[C@@H](CC(C)C)C(=O)N[C@H](C(=O)O)CSSC[C@@H](C(=O)N[C@@H](C)C(=O)NCC(=O)N[C@@H](CO)C(=O)N[C@@H](CCCNC(=N)N)C(=O)N[C@@H](Cc2c[nH]c3ccccc23)C(=O)O)NC(=O)[C@H]([C@@H](C)O)NC(=O)[C@H](Cc2ccccc2)NC(=O)[C@H]([C@@H](C)CC)NC(=O)[C@H](C(C)C)NC(=O)[C@H](C)NC(=O)[C@H](CCCNC(=N)N)NC1=O [[G(B23)A]R3/I5]
[1]
  binding potency towards RXFP4, in words: retained high binding potency
[2]
  binding potency towards RXFP3, in words: retained considerable binding potency
[3]
  fold lower activation potency towards RXFP4 compared with R3/I5: ~ 100 fold
[4]; CRE-NanoLuc reporter, human RXFP3, compared with R3/I5
  activation potency towards RXFP3, in words: lost all activation potency

## CC[C@H](C)[C@@H]1NC(=O)[C@H](Cc2ccccc2)NC(=O)[C@H](CCC(=O)O)NC(=O)[C@H](CCCNC(=N)N)NC(=O)CNC(=O)[C@@H](NC(=O)[C@H](CC(C)C)NC(=O)[C@H](CCCNC(=N)N)NC(=O)[C@@H](NC(=O)CNC(=O)[C@H](Cc2ccc(O)cc2)NC(=O)[C@@H]2CCCN2C(=O)[C@H](C)NC(=O)[C@H](C)NC(=O)[C@H](CCCNC(=N)N)NC(=O)[C@@H]2CCC(=O)N2)C(C)C)CSSC[C@@H]2NC(=O)[C@@H](NC(=O)[C@H](CC(C)C)NC(=O)[C@@H](NC(=O)[C@H](CCC(N)=O)NC(=O)[C@H](CC(C)C)NC(=O)[C@H](CC(=O)O)NC(=O)[C@H](CCC(N)=O)NC(=O)[C@H](CCCNC(=N)N)NC(=O)[C@H](CO)NC(=O)[C@H](CCCNC(=N)N)NC(=O)[C@H](CCCNC(=N)N)NC(=O)[C@H](CO)NC(=O)[C@@H](N)CCCNC(=N)N)[C@@H](C)O)CSSC[C@H](NC(=O)CNC(=O)[C@H](CC(=O)O)NC(=O)[C@H]([C@@H](C)O)NC2=O)C(=O)N[C@@H](CO)C(=O)N[C@@H](CCSC)C(=O)N[C@@H]([C@@H](C)O)C(=O)N[C@@H](CC(=O)O)C(=O)N[C@@H](CC(C)C)C(=O)N[C@@H](CO)C(=O)N[C@@H](C)C(=O)N[C@@H](CC(C)C)C(=O)N[C@H](C(=O)O)CSSC[C@@H](C(=O)NCC(=O)N[C@H](C(=O)N[C@@H](CO)C(=O)N[C@@H](CCCNC(=N)N)C(=O)N[C@@H](Cc2c[nH]c3ccccc23)C(=O)O)[C@@H](C)O)NC(=O)[C@H]([C@@H](C)O)NC(=O)[C@H](Cc2ccccc2)NC(=O)[C@H]([C@@H](C)CC)NC(=O)[C@H](C(C)C)NC(=O)[C@H](C)NC(=O)[C@H](CCCNC(=N)N)NC1=O [[G(B24)T]R3/I5]
[4]; [5]
  fold lower activation potency towards RXFP3 compared with R3/I5: ~ 20 fold
[4]
  fold higher activation potency towards RXFP3 than towards RXFP4: ~ 2 fold

## CC[C@H](C)[C@@H]1NC(=O)[C@H](Cc2ccccc2)NC(=O)[C@H](CCC(=O)O)NC(=O)[C@H](CCCNC(=N)N)NC(=O)CNC(=O)[C@@H](NC(=O)[C@H](CC(C)C)NC(=O)[C@H](CCCNC(=N)N)NC(=O)[C@@H](NC(=O)CNC(=O)[C@H](Cc2ccc(O)cc2)NC(=O)[C@@H]2CCCN2C(=O)[C@H](C)NC(=O)[C@H](C)NC(=O)[C@H](CCCNC(=N)N)NC(=O)[C@@H]2CCC(=O)N2)C(C)C)CSSC[C@@H]2NC(=O)[C@@H](NC(=O)[C@H](CC(C)C)NC(=O)[C@@H](NC(=O)[C@H](CCC(N)=O)NC(=O)[C@H](CC(C)C)NC(=O)[C@H](CC(=O)O)NC(=O)[C@H](CCC(N)=O)NC(=O)[C@H](CCCNC(=N)N)NC(=O)[C@H](CO)NC(=O)[C@H](CCCNC(=N)N)NC(=O)[C@H](CCCNC(=N)N)NC(=O)[C@H](CO)NC(=O)[C@@H](N)CCCNC(=N)N)[C@@H](C)O)CSSC[C@H](NC(=O)CNC(=O)[C@H](CC(=O)O)NC(=O)[C@H]([C@@H](C)O)NC2=O)C(=O)N[C@@H](CO)C(=O)N[C@@H](CCSC)C(=O)N[C@@H]([C@@H](C)O)C(=O)N[C@@H](CC(=O)O)C(=O)N[C@@H](CC(C)C)C(=O)N[C@@H](CO)C(=O)N[C@@H](C)C(=O)N[C@@H](CC(C)C)C(=O)N[C@H](C(=O)O)CSSC[C@@H](C(=O)NCC(=O)N[C@H](C(=O)N[C@@H](CO)C(=O)N[C@@H](CCCNC(=N)N)C(=O)N[C@@H](Cc2c[nH]c3ccccc23)C(=O)O)C(C)C)NC(=O)[C@H]([C@@H](C)O)NC(=O)[C@H](Cc2ccccc2)NC(=O)[C@H]([C@@H](C)CC)NC(=O)[C@H](C(C)C)NC(=O)[C@H](C)NC(=O)[C@H](CCCNC(=N)N)NC1=O [[G(B24)V]R3/I5]
[2]; relative to R3/I5
  fold lower binding potency for RXFP3 compared with R3/I5: ~ 5 fold
[4]; [5]
  fold lower activation potency towards RXFP3 compared with R3/I5: ~ 10 fold
[4]
  fold higher activation potency towards RXFP3 than towards RXFP4: ~ 10 fold
